Data as given in ChEMBL document CHEMBL4219257, “Novel 8-hydroxyquinoline derivatives targeting β-amyloid aggregation, metal chelation and oxidative stress against Alzheimer's disease” (Bioorg Med Chem, 2018).
Calls of active or inactive are those of the source. The calls are words filed in the database; no cut-off is given here.

How the values were obtained:
[1] = molecular target: T1, Amyloid-beta precursor protein (Homo sapiens, UniProt P05067); assay: Inhibition of HFIP-pretreated amyloid beta (1 to 42) (unknown origin) self-induced aggregation at 10 uM after 48 hrs by thioflavin T-based fluorometric assay relative to control
[2] = Antioxidant activity assessed as trolox equivalents of AAPH radical scavenging activity at 10 uM preincubated for 15 mins followed by AAPH addition measured every minute for 120 mins by ORAC-FL assay; type: functional
[3] = molecular target: T1, Amyloid-beta precursor protein; assay: Inhibition of HFIP-pretreated amyloid beta (1 to 42) (unknown origin) self-induced aggregation after 48 hrs by thioflavin T-based fluorometric assay
[4] = Inhibition of Zn2+ - induced amyloid beta (1 to 42) (unknown origin) aggregation at 50 uM after 24 hrs by thioflavin T-based fluorometric assay relative to control
in vitro = conditions: PAMPA
Description: Permeability of the compound at 100 ug/ml after 10 hrs by PAMPA

[5] = Inhibition of Cu2+ - induced amyloid beta (1 to 42) (unknown origin) aggregation at 50 uM after 24 hrs by thioflavin T-based fluorometric assay relative to control
PC-12 = assay: Cytoprotection against H2O2-induced oxidative stress in rat PC12 cells assessed as increase in cell viability up to 10 uM after 24 hrs by MTT assay; type: functional, cell-based

T1 sequence (P05067 whole entry): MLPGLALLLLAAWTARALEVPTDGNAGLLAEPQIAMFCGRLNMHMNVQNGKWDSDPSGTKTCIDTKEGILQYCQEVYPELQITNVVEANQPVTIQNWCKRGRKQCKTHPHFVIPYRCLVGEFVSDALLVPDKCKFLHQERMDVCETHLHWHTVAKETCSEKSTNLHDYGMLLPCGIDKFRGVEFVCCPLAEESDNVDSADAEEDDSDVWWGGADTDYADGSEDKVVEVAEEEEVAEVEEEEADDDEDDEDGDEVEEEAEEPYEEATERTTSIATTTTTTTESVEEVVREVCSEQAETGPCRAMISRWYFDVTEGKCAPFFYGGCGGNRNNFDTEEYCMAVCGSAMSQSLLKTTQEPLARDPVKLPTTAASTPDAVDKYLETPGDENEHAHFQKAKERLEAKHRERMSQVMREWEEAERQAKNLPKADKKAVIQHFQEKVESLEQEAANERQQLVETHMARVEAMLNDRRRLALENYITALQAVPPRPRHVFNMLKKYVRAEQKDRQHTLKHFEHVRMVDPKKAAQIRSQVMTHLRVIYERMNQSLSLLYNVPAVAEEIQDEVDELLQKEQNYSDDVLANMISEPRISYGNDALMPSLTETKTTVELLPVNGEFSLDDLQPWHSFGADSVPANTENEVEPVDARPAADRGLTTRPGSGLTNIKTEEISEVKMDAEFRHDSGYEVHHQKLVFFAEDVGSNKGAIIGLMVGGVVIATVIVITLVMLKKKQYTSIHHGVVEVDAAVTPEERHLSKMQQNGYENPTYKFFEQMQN

SMILES	inhibition [1] [%]	Activity [2] [equiv]	IC50 [3] [µM]	inhibition [4] [%]	Papp at 10 h, 100 ug/ml (in vitro) [×10⁻⁶ cm/s]	inhibition [5] [%]	Activity (PC-12)
O=C(CCc1ccc(Cl)cc1)N1CCN(Cc2ccc(O)c3ncccc23)CC1	15.6	2.57					
O=C(/C=C/c1ccc(F)cc1)N1CCN(Cc2ccc(O)c3ncccc23)CC1	49.9	1.45	11.4				
COc1ccc(/C=C/C(=O)N2CCN(Cc3ccc(O)c4ncccc34)CC2)cc1	12.3	1.25					
O=C(/C=C/c1ccc(F)cc1F)N1CCN(Cc2ccc(O)c3ncccc23)CC1	73.4	1.57	5.05	52	18.6	62.1	
O=C(/C=C/c1ccc(Cl)cc1)N1CCN(Cc2ccc(O)c3ncccc23)CC1	25.7	0.69	22.6				
COc1ccc(CCC(=O)N2CCN(Cc3ccc(O)c4ncccc34)CC2)cc1	34.3	2.89	18.3				
Oc1c(I)cc(Cl)c2cccnc12	25.7	0.53		55.3		61.4	
Cc1c(C)c2c(c(C)c1O)CCC(C)(C(=O)O)O2 (centres undefined)							Active
O=C(CCc1ccccc1)N1CCN(Cc2ccc(O)c3ncccc23)CC1	28.1	2.6	19.7				
CCn1cc(C(=O)O)c(=O)c2cc(F)c(N3CCNC(C)C3)c(F)c21 (centres undefined) [LOMEFLOXACIN]					1.59		
COc1ccc(CCC(=O)N2CCN(Cc3ccc(O)c4ncccc34)CC2)cc1OC	18.3	3.74			9.67		
O=C(CCc1ccc(F)cc1)N1CCN(Cc2ccc(O)c3ncccc23)CC1	32.5	2.32	20.6				
